Reference: patent US20100240657A1, “CHEMICAL COMPOUNDS” (BOEHRINGER INGELHEIM INTERNATIONAL GMBH, priority 2007, published 2010)

Legend:
SK-MEL28 cells = test: Inhibition of proliferation on cultivated human melanoma cells (SK-MEL28), AlamarBlue; type: cell-based; details: SK-MEL-28, SK-MEL28, 72 hours incubation, read-out: EC50 value, cellular SK-MEL28 assay
Description: (§1) To measure proliferation on cultivated human tumour cells, cells of melanoma cell line SK-MEL28 [American Type Culture Collection (ATCC)] are cultivated in MEM medium, supplemented with 10% foetal calf serum, 2% sodium bicarbonate, 1 mM sodium pyruvate, 1% non-essential amino acids (e.g. from Cambrex, #BE13-114E) and 2 mM glutamine. SK-MEL28 cells are placed in 96-well flat-bottomed plates at a density of 2500 cells per well in supplemented MEM medium (see above) and incubated overnight in an incubator (at 37° C. and 5% CO2). The active substances are added to the cells in various concentrations so as to cover a range of concentrations from 50 μM to 3.2 nM. If necessary the initial concentration is changed from 50 μM to 10 μM or 2 μM and further dilution (to 0.6 nM or 0.12 nM) is carried out accordingly. After a further 72 hours incubation, 20 μl AlamarBlue reagent (Serotec Ltd., #BUF012B) is added to each well, and the cells are incubated for a further 3-6 hours. The colour change of the AlamarBlue reagent is determined in a fluorescence spectrophotometer (e.g. Gemini, Molecular Devices). EC50 values are calculated using the software programme (GraphPadPrizm).

A375 cells = test: Inhibition of proliferation on cultivated human melanoma cells (A375), AlamarBlue; type: cell-based; details: A-375, A375, method as for SK-MEL28, read-out: EC50 value, cellular A375 assay
Description: as §1
To measure proliferation on cultivated human tumour cells, cells of melanoma cell line A375 [American Type Culture Collection (ATCC)] are cultivated in MEM medium, supplemented with 10% foetal calf serum and 2% sodium bicarbonate. Test substances are tested on A375 cells according to the method described for SK-MEL28 cells (see above).

B-Raf (V600E) = B-Raf (V600E) (Homo sapiens, UniProt P15056, V600E); test: Kinase test B-Raf (V600E); type: biochemical; details: 250 μM ATP, MEK1 substrate; read-out: IC50 value, B-Raf (V600E) inhibition test
Description: In a dilution series, 10 μL aliquots of test substance solution are placed in a multiwell plate. The dilution series is selected so as to cover a range of concentrations from 2 μM to 0.128 or 0.017 nM. If necessary the initial concentration is changed from 2 μM to 10 or 0.4 μM and further dilution is carried out accordingly. The final concentration of DMSO is 5%. 10 μL of the B-Raf (V600E) kinase solution are pipetted in (containing 2.5 ng B-Raf (V600E)-kinase in 20 mM TrisHCl pH 7.5, 0.1 mM EDTA, 0.1 mM EGTA, 0.286 mM sodium orthovanadate, 10% glycerol, 1 mg/mL bovine serum albumin, 1 mM dithiothreitol) and incubated for 1 h at RT with agitation. The kinase reaction is started by the addition of 20 μL ATP solution [final concentration: 250 μM ATP, 30 mM Tris-HCl pH 7.5, 0.02% Brij, 0.2 mM sodium-orthovanadate, 10 mM magnesium acetate, phosphatase cocktail (Sigma, #P2850, dilution recommended by the manufacturer), 0.1 mM EGTA] and 10 μL MEK1 solution [containing 50 ng biotinylated MEK1 (prepared from purified MEK1 according to standard procedure, e.g. with reagent EZ-Link Sulfo-NHS-LC-Biotin, Pierce, #21335) in 50 mM Hepes pH 7.5, 150 mM NaCl, 10% glycerol, 0.02% Brij-35, 0.2 mM PMSF, 0.2 mM benzamidine] and carried out for 60 min at RT with constant agitation. The reaction is stopped by the addition of 12 μL of a 100 mM EDTA solution and incubated for a further 5 min. 55 μL of the reaction solution are transferred into a streptavidine-coated plate (e.g. Streptawell HighBond, Roche, #11989685001) and shaken gently for 1 h at RT, in order to bind biotinylated MEK1 to the plate. After removal of the liquid the plate is washed five times with 200 μL of 1×PBS, and 100 μL solution of primary antibody plus europium-labelled secondary antibody [Anti Phospho-MEK (Ser217/221), Cell Signaling #9121 and Eu-N1 labeled goat-anti-rabbit antibody, Perkin Elmer #AD01015], the primary antibody is diluted 1:2000 and the secondary antibody is added to 0.4-0.5 μg/mL diluted in Delfia Assay Buffer (Perkin Elmer, #1244-111). After 1 h agitation at RT the solution is poured away and washed five times with 200 μL Delfia Wash Buffer (Perkin Elmer #4010-00101244-114). After the addition of 200 μL Enhancement Solution (Perkin Elmer #4001-00101244-105) the preparation is shaken for 10 min at RT and then measured in a Wallac Victor using the programme “Delfia Time Resolved Fluorescence (Europium)”.
IC50 values are determined from these dosage-activity curves using the software programme (GraphPadPrizm).

Chain of B-Raf (V600E) (P15056 whole entry V600E): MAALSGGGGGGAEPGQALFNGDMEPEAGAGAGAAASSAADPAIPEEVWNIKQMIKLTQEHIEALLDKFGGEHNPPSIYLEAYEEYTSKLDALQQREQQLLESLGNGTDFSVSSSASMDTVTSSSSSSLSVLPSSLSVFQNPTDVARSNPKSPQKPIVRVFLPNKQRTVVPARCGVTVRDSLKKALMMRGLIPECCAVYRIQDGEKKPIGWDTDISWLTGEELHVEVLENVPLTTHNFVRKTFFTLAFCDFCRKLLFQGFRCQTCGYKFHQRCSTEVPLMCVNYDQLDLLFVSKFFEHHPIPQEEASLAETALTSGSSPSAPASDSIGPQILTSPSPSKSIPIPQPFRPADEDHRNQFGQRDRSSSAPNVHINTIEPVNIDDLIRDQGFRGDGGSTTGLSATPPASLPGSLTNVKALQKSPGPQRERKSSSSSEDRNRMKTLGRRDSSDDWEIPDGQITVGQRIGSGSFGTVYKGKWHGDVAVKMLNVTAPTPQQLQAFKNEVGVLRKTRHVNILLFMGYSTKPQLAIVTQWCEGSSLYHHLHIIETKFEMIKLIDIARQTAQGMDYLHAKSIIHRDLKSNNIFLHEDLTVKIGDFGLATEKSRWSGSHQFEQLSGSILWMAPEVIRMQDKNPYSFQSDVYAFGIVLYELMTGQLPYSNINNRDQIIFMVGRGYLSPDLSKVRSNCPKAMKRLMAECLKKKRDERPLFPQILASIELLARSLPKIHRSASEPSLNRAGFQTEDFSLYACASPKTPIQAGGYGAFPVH

| SMILES | EC50 (SK-MEL28 cells) | EC50 (A375 cells) | IC50 (B-Raf (V600E)) |
| --- | --- | --- | --- |
| COC(=O)c1cncc(-n2cc(-c3cc(C(=O)Nc4cc(C(C)(C)C)cc(NS(C)(=O)=O)c4OC)ccc3C)nn2)c1 [Example 1a] | < 5 µM | < 5 µM | – |
| COc1c(NC(=O)c2ccc(C)c(-c3noc(-c4cccnc4)n3)c2)cc(C(C)(C)C)cc1NS(C)(=O)=O [Example 2a] | – | < 5 µM | < 0.5 µM |
| Cc1ccc(C(=O)Nc2ccc(Cl)c(C(F)(F)F)c2)cc1-c1noc(-c2cccnc2)n1 [Example 2b] | – | < 5 µM | < 0.5 µM |
| COc1c(NC(=O)c2ccc(C)c(-c3nc(-c4cccnc4)no3)c2)cc(C(C)(C)C)cc1NS(C)(=O)=O [Example 3a] | < 5 µM | < 5 µM | < 0.5 µM |
| Cc1ccc(C(=O)Nc2cc(C(C)(C)C)n[nH]2)cc1-c1csc(-c2cccnc2)n1 [Example 5b-a] | < 5 µM | < 5 µM | < 0.5 µM |
| Cc1ccc(C(=O)Nc2ccc(Cl)c(C(F)(F)F)c2)cc1-c1csc(-c2cccnc2)n1 [Example 5b-b] | – | – | < 0.5 µM |
| Cc1ccc(C(=O)Nc2cc(C(C)(C)C)on2)cc1-c1c[nH]c(-c2cccnc2)n1 [Example 6c] | < 5 µM | < 5 µM | – |
